Measured values from the CheMixHub viscosity set.

Assay: xn = mol fraction of the nth substance listed

CC(C)(C)N + COC(C)=O
303.15 K, 101 kPa
Details	viscosity [mPa·s]
x1 = 0.1513	0.3868
x1 = 0.247	0.4006
x1 = 0.3175	0.4155
x1 = 0.4152	0.4301
x1 = 0.5361	0.4379
x1 = 0.7023	0.4413
x1 = 0.771	0.4432
x1 = 0.8641	0.4438

BrC(Br)Br + COCCO
viscosity [mPa·s], 101.3 kPa
Details	x1 = 0.097	x1 = 0.198	x1 = 0.297	x1 = 0.401	x1 = 0.499	x1 = 0.6	x1 = 0.697	x1 = 0.798	x1 = 0.9
298.15 K	1.922	2.097	2.22	2.27	2.245	2.183	2.094	2.003	1.932
303.15 K	1.719	1.872	1.984	2.03	2.014	1.972	1.909	1.842	1.794
308.15 K	1.549	1.68	1.774	1.825	1.817	1.792	1.748	1.702	1.676

CC(C)(C)N + COCCO
308.15 K, 101 kPa
Details	viscosity [mPa·s]
x2 = 0.13	0.5293
x2 = 0.2516	0.6631
x2 = 0.3656	0.7913
x2 = 0.4727	0.9167
x2 = 0.5735	1.035
x2 = 0.6668	1.083
x2 = 0.7583	1.115
x2 = 0.8432	1.152
x2 = 0.9237	1.187

BrC(Br)Br + CS(C)=O
Details	viscosity [mPa·s]
298 K, 101.3 kPa, x1 = 0.0899	2.155
298 K, 101.3 kPa, x1 = 0.1708	2.427
298 K, 101.3 kPa, x1 = 0.3448	2.816
298 K, 101.3 kPa, x1 = 0.4446	2.945
298 K, 101.3 kPa, x1 = 0.5453	2.944
298 K, 101.3 kPa, x1 = 0.6466	2.762
298 K, 101.3 kPa, x1 = 0.7553	2.544
298 K, 101.3 kPa, x1 = 0.8619	2.192
318 K, 101.33 kPa, x1 = 0.1216	1.568
318 K, 101.33 kPa, x1 = 0.2541	1.787
318 K, 101.33 kPa, x1 = 0.443	1.978
318 K, 101.33 kPa, x1 = 0.5441	1.982
318 K, 101.33 kPa, x1 = 0.5955	1.983
318 K, 101.33 kPa, x1 = 0.8193	1.716

C=Cc1ccccc1 + CS(C)=O
viscosity [mPa·s], 101.33 kPa
Details	x1 = 0.1017	x1 = 0.2022	x1 = 0.3096	x1 = 0.3987	x1 = 0.501	x1 = 0.6007	x1 = 0.6968	x1 = 0.801	x1 = 0.896
298.15 K	1.642	1.475	1.326	1.237	1.139	1.058	0.982	0.887	0.802
303.15 K	1.482	1.343	1.191	1.112	1.044	0.976	0.91	0.827	0.749
308.15 K	1.335	1.204	1.083	1.014	0.957	0.899	0.837	0.763	0.7

O=c1oc2ccccc2c(O)c1C(c1ccccc1)c1c(O)c2ccccc2oc1=O + CS(C)=O
viscosity [mPa·s], 100 kPa
Details	x1 = 0.0007822	x1 = 0.001562	x1 = 0.002337	x1 = 0.003116	x1 = 0.003894	x1 = 0.004664
293.15 K	2.346	2.469	2.592	2.715	2.839	2.963
298.15 K	2.068	2.179	2.286	2.394	2.502	2.611
303.15 K	1.883	1.966	2.063	2.161	2.256	2.352
308.15 K	1.684	1.755	1.825	1.909	1.992	2.076
313.15 K	1.519	1.578	1.638	1.713	1.789	1.862
